The supplement of paper PMC10307832

Experiments:
Test in all cases: relative viability (nuclei count vs DMSO), 5 days (fraction); higher = more cells survive
Kobe2602 + Olaparib = compound: C1=CC(=CC=C1NC(=S)NNC2=C(C=C(C=C2[N+](=O)[O-])C(F)(F)F)[N+](=O)[O-])F [Kobe2602] + O=C(c1cc(Cc2n[nH]c(=O)c3ccccc23)ccc1F)N1CCN(C(=O)C2CC2)CC1 [Olaparib] (partner 8 µM)
Summary of the method: (§1)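 Cells from lung cancer lines were seeded into 1536-well plates and, one day later, dosed by pin tool. Treatments were either a single drug or a fixed dose of an anchor drug with five library-drug doses (not always all listed) in √10 steps. After 5 days, nuclei were stained in a one-step fixation (final 0.05% Triton X-100, 1% formaldehyde, 1 ug/ml Hoechst) and counted on 4× images, and relative viability is the treated-to-vehicle nuclei ratio, as the median of duplicate plates.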

Kobe2602 + Linsitinib = compound: C1=CC(=CC=C1NC(=S)NNC2=C(C=C(C=C2[N+](=O)[O-])C(F)(F)F)[N+](=O)[O-])F [Kobe2602] + C[C@]1(O)C[C@@H](c2nc(-c3ccc4ccc(-c5ccccc5)nc4c3)c3c(N)nccn32)C1 [Linsitinib] (partner 1 µM)
Summary of the method: as §1

Kobe2602 + Alpelisib = compound: C1=CC(=CC=C1NC(=S)NNC2=C(C=C(C=C2[N+](=O)[O-])C(F)(F)F)[N+](=O)[O-])F [Kobe2602] + Cc1nc(NC(=O)N2CCC[C@H]2C(N)=O)sc1-c1ccnc(C(C)(C)C(F)(F)F)c1 [Alpelisib] (partner 2 µM)
Summary of the method: as §1

Kobe2602 + Crizotinib = compound: C1=CC(=CC=C1NC(=S)NNC2=C(C=C(C=C2[N+](=O)[O-])C(F)(F)F)[N+](=O)[O-])F [Kobe2602] + C[C@@H](Oc1cc(-c2cnn(C3CCNCC3)c2)cnc1N)c1c(Cl)ccc(F)c1Cl [Crizotinib] (partner 1 µM)
Summary of the method: as §1

Cell Line	relative viability (Kobe2602 + Olaparib; first compound 0.2 µM)	relative viability (Kobe2602 + Olaparib; first compound 0.6325 µM)	relative viability (Kobe2602 + Olaparib; first compound 2 µM)	relative viability (Kobe2602 + Olaparib; first compound 6.325 µM)	relative viability (Kobe2602 + Olaparib; first compound 20 µM)	relative viability (Kobe2602 + Linsitinib; first compound 0.2 µM)	relative viability (Kobe2602 + Linsitinib; first compound 0.6325 µM)	relative viability (Kobe2602 + Linsitinib; first compound 2 µM)	relative viability (Kobe2602 + Linsitinib; first compound 6.325 µM)	relative viability (Kobe2602 + Linsitinib; first compound 20 µM)	relative viability (Kobe2602 + Alpelisib; first compound 0.2 µM)	relative viability (Kobe2602 + Alpelisib; first compound 0.6325 µM)	relative viability (Kobe2602 + Alpelisib; first compound 2 µM)	relative viability (Kobe2602 + Alpelisib; first compound 6.325 µM)	relative viability (Kobe2602 + Alpelisib; first compound 20 µM)	relative viability (Kobe2602 + Crizotinib; first compound 0.2 µM)	relative viability (Kobe2602 + Crizotinib; first compound 0.6325 µM)	relative viability (Kobe2602 + Crizotinib; first compound 2 µM)	relative viability (Kobe2602 + Crizotinib; first compound 6.325 µM)	relative viability (Kobe2602 + Crizotinib; first compound 20 µM)
NCI-H2228	0.738	0.576	0.689	0.593	0.629	0.576	0.733	0.809	0.756	0.598	0.724	0.712	0.747	0.713	0.776	0.484	0.504	0.441	0.494	0.585
NCI-H2347	0.603	0.548	0.559	0.53	0.607	0.924	0.884	0.947	0.997	1.03	0.972	1.01	0.969	1.08	1.09	0.613	0.643	0.612	0.712	0.785
NCI-H2405	0.915	0.874	0.868	0.905	0.909	0.961	1.06	0.932	0.971	0.994	0.748	0.94	0.721	0.896	0.831	0.853	0.916	0.827	0.91	0.786
NCI-H3122	0.551	0.602	0.621	0.56	0.619	1.01	1.05	1.01	1.06	1.11	0.807	0.753	0.764	0.784	0.885	0.262	0.255	0.254	0.263	0.266
PC-3 [JPC-3]	1.1	1.22	1.13	1.19	1.13	0.952	0.872	0.965	0.976	0.956	1.05	1.04	0.971	1.03	1.02	0.933	1.02	0.946	0.925	0.974
PC-14	0.24	0.356	0.256	0.259	0.101	0.946	0.986	0.929	0.94	0.929	0.822	0.948	0.863	0.962	0.989	0.886	0.927	0.838	1.02	0.912
RERF-LC-KJ	0.936	0.957	0.9	0.525	0.282	0.826	0.868	0.814	0.829	0.824	0.829	0.792	0.742	0.865	0.779	0.781	0.839	0.836	0.81	0.756
SK-LU-1	0.463	0.471	0.494	0.457	0.523	1.05	1.15	1.04	1.04	1.27	1.03	1.37	0.968	0.948	0.977	0.94	0.944	0.965	1.06	0.924
SK-MES-1	0.674	0.643	0.635	0.551	0.281	1	1.26	1.04	1.07	1.07	0.817	0.955	0.844	0.79	0.877	0.966	0.964	0.954	1.04	1
SW 1573	0.477	0.416	0.306	0.466	0.152	0.846	0.767	0.811	0.769	0.864	0.759	0.792	0.677	0.622	0.736	0.788	0.879	0.736	0.863	0.912
